Data: patent publication US12215078B2, “Compositions and methods for protein labeling, modification, analysis, and targeted delivery” (University of Massachusetts, priority 2018, dated 2025)
“Also recorded” adds a separate entry of the source.

How the values were obtained:
[1] = Thiol-triggered declick of thiol/amine click products followed by NMR; assay type: physicochemical
Description: Typically, product of thiol-A1 or amine-A1 click product was dissolved in single or mixed deuterated solvents (the volume of solvent depends on the solubility of A1 The volume of solvent depends on the solubility of click product). Then, thiol was added to the solution. The reaction was immediately followed by NMR.
Compound 17: 10 μmol (1 eq.) of 17 was dissolved in 500 μL of MeOH-d4 and 500 μL of 50 mM pH6.8 phosphate buffer. Then, 80 μmol (8 eq.) of thiol was added to the solution. Final concentration of 17 is 10 mM.
Compound 18: 10 μmol (1 eq.) of 18 was dissolved in 500 μL of MeOH-d4 and 500 μL of 50 mM pH7.4 phosphate buffer. Then, 80 μmol (8 eq.) of thiol was added to the solution. Final concentration of 18 is 10 mM.
Compound 19: 10 μmol (1 eq.) of 19 was dissolved in 500 μL of MeOH-d4 and 500 μL of 50 mM pH7.4 phosphate buffer. Then, 10 μmol (0.5 eq.) of thiol was added to the solution. Final concentration of 19 is 10 mM.
Compound 20: 10 μmol (1 eq.) of 20 was dissolved in 1000 μL of MeOH-d4 and 500 μL of 50 mM pH7.4 phosphate buffer. Then, 10 μmol (0.5 eq.) of thiol was added to the solution. Final concentration of 20 is 6.67 mM.
Compound 21: 10 μmol (1 eq.) of 21 was dissolved in 500 μL of MeOH-d4 and 500 μL of 50 mM pH7.4 phosphate buffer. Then, 10 μmol (0.5 eq.) of thiol was added to the solution. Final concentration of 21 is 10 mM. […]

[2] = Thiol-click (click-to-release) kinetics followed by NMR; assay type: physicochemical; conditions: for relative reactivity in thiol and amine addition reactions (in words): both thiol and amine addition (FIG. 2B-2C); for thiol-click reaction rate (in words): MeOH-d4, A1:thiol 2:1 (FIG. 2B)
Description: (§1) 10 μmol (2 eq.) of A1 molecules was dissolved in single or mixed deuterated solvents (the volume of solvent depends on the solubility of A1). Then, 5 μmol (1 eq.) of 2-(2-Methoxyethoxy) ethanethiol or benzylamine was added to the solution. The reaction was immediately followed by NMR. The final concentration of A1 for each molecule is shown at the end of supplementary information case by case. The conversion of thiol or amine was calculated from the integration of corresponding peaks by NMR and plotted against reaction time.
Compound 1, 2, 3, 4, 5, 8, 11, 12, 13: 10 μmol (2 eq.) of molecule 1, 2, 3, 4, 5, 8, 11, 12, 13 was dissolved in 1000 μL of MeOH-d4. Then, 5 μmol (1 eq.) of thiol was added to the solution. The reaction was immediately followed by NMR.
Compound 6, 7, 9: 10 μmol (2 eq.) of molecule 6, 7, 9 was dissolved in 500 μL of MeOH-d4 and 500 μL of 50 mM pH 7.4 phosphate buffer. Then, 5 μmol (1 eq.) of thiol or amine was added to the solution. The reaction was immediately followed by NMR.
Compound 10: 10 μmol (2 eq.) of molecule 10 was dissolved in 1000 μL of DMSO-d6 and 500 μL of 50 mM pH 7.4 phosphate buffer. Then, 5 μmol (1 eq.) of thiol or amine was added to the solution. The reaction was immediately followed by NMR.
Compound 14, 15, 16: 10 μmol (2 eq.) of molecule 14, 15, 16 was dissolved in dissolved in 500 μL of MeOH-d4 and 500 μL of 50 mM pH 6.2 phosphate buffer. Then, 5 μmol (1 eq.) of thiol or amine was added to the solution. The reaction was immediately followed by NMR.

β-lactoglobulin B (βLGb) = target: T1, β-lactoglobulin B (βLGb) (Bos taurus, UniProt P02754); assay: βLGb labeling, ESI-MS and MS/MS of digests; assay type: biochemical; conditions: for modification sites / selectivity on βLGb: digest, MS/MS; for time until βLGb fully labelled: excess of reagent, disappearance of unmodified protein peaks in ESI-MS; for number of modifications in βLGb: mass shift, ESI-MS
T1 construct: purchased
T1 sequence (P02754 17-178): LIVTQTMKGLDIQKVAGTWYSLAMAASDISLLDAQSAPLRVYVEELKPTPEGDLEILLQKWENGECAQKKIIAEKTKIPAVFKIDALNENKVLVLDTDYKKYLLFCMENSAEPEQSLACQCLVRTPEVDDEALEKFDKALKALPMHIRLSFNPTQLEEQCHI
Description: For βLGb labeling reaction, βLGb was first denatured by 8 M of urea to expose the free cysteine. The denatured protein was then diluted with 50 mM pH 8.0 phosphate buffer, which results in a protein solution concentration of 100 μM. This protein solution was incubated with 20 equivalents of 1 for 5 min or with 20 equivalents of 8 for 40 min at room temperature to obtain the fully modified proteins respectively. After labeling, the reaction mixtures were injected immediately into an HPLC to remove excess labeling reagents and phosphate salts and then later analyzed by ESI-MS.
The labeled βLGb protein samples were first buffer-exchanged using 10K NMWL Amicon Ultra centrifugal filters (Millipore, Burlington, MA) with 100 mM triethylamine acetate (pH 8.0), and reconstituted with 1 M urea before enzymatic digestion. To reduce the disulfide bonds in βLGb, TCEP in water was added at a protein:TCEP molar ratio of 1:20, and the sample was incubated at room temperature for 10 min. To alkylate the reduced cysteines, iodoacetamide in water was added at a protein:iodoacetamide molar ratio of 1:80, and the sample was incubated in the dark at room temperature for 30 min. The denatured, reduced, and alkylated protein samples were then digested with trypsin at an enzyme: substrate ratio of 1:10. After 4 h of digestion at 37° C., the enzyme was separated from the mixture by centrifugation using a 10K NMWL Microcon filter (Millipore, Burlington, MA). The filtrate was then analyzed by LC-MS and LC-MS/MS.
To quench the labeling reaction and to remove excess labeling reagents and buffer salts, a Thermo Scientific Ultimate 3000 HPLC system (Thermo Scientific, Tewksbury, MA) with an OPTI-TRAP C4 reverse phase column (1×8 mm) was used. The protein was eluted using an acetonitrile gradient that increases from 1 to 99% over 12 min at a flow rate of 0.2 mL/min. The labeled protein was collected for proteolytic digestion or intact protein MS characterization.
Mass spectral analyses of the HPLC separated intact protein samples (Myo and βLGb) from the covalent labeling experiments were acquired on a Bruker AmaZon (Billerica, MA) quadrupole ion trap mass spectrometer equipped with an electrospray ionization source. The electrospray needle voltage was kept at 4 kV, and the capillary temperature was set to 250° C. Mass spectra of intact BCA protein samples were acquired on a Thermo Orbitrap Fusion Tribrid (Tewksbury, MA) mass spectrometer. The electrospray ionization source was typically operated at a needle voltage of 3800 V, and the ion transfer tube temperature was set to 325° C.
LC-MS and LC-MS/MS analyses of protein proteolytic fragments were conducted on a Thermo Orbitrap Fusion Tribrid (Tewksbury, MA) mass spectrometer. The electrospray ionization source was typically operated at a needle voltage of 2100 V, and the ion transfer tube temperature was set to 300° C. Tandem mass spectra were collected using CID with a normalized collision energy of 35%. Due to the large number of detectable peaks, an exclusion limit of 60 s was applied after five spectra had been collected for any given peak. The resolution of the Orbitrap was set to 60000.
Raw mass spectral data files were analyzed by Thermo Proteome Discoverer 2.2 software. Spectra were searched against the corresponding protein sequence. Variable modification by certain labeling reagents of the residues and the protein N-terminus was added as a dynamic modification. Other dynamic modifications such as oxidation of methionine and carboxyamidomethylation of cysteine were also used in the searches. Trypsin enzyme cleavage was selected, and a precursor mass tolerance of 10 ppm was used. Identifications of peptides and modifications at high confidence levels were used and were manually checked in all cases.

[3] = Amine-click kinetics followed by NMR; assay type: physicochemical
Description: as §1
• Compound 1, 2, 3, 4, 5, 6, 7, 8, 9, 11, 12, 13: 10 μmol (2 eq.) of molecule 1, 2, 3, 4, 5, 6, 7, 8, 9, 11, 12, 13 was dissolved in 500 μL of MeOH-d4 and 500 μL of 50 mM pH 7.4 phosphate buffer. Then, 5 μmol (1 eq.) of benzylamine was added to the solution. The reaction was immediately followed by NMR.
Compound 10: 10 μmol (2 eq.) of molecule 10 was dissolved in 1000 μL of DMSO-d6 and 500 μL of 50 mM pH 7.4 phosphate buffer. Then, 5 μmol (1 eq.) of benzylamine was added to the solution. The reaction was immediately followed by NMR.
Compound 14, 15, 16: 10 μmol (2 eq.) of molecule 14, 15, 16 was dissolved in 800 μL of MeOH-d4 and 200 μL of 50 mM pH 7.4 phosphate buffer. Then, 5 μmol (1 eq.) of benzylamine was added to the solution. The reaction was immediately followed by NMR.

Myoglobin (Myo) = target: T2, Myoglobin (Myo) (Equus caballus, UniProt P68082); assay: Myoglobin reversible modification and biophysical characterization; assay type: biochemical
T2 construct: purchased
T2 sequence (P68082 whole entry): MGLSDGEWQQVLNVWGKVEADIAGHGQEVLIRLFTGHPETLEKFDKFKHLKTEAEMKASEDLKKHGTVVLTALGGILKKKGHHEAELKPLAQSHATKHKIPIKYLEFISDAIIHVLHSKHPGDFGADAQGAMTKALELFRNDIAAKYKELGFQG
Description: For Myoglobin (Myo) reversible modification reactions, the modified protein solution was prepared by reacting 100 μM of the Myo with 20 equivalents of 1 for 5 min in 50 mM pH 8.0 phosphate buffer at room temperature. The proteins were collected from HPLC purification from previous modification reactions, and the excess labeling reagents were removed from the reaction mixtures. The collected protein solution was characterized by ESI-MS or other biophysical characterizations such as Circular Dichroism (CD) and Ultraviolet-Visible Spectroscopy (UV-Vis). The same protein solution was also buffer-exchanged using 10K NMWL Amicon Ultra centrifugal filters (Millipore, Burlington, MA) with 50 mM pH 7.4 phosphate buffer to yield a 100 μM solution for further reverse reaction. […] After reverse modification reaction, the reaction mixture was injected to a LC-MS system for intact protein analyses. […]
Far-UV CD analyses were performed on a Jasco J-1500 spectropolarimeter. CD spectra were recorded at room temperature over a scan range of 260 to 200 nm. […]
Temperature dependent CD measurements were also performed for the protein samples to evaluate the thermal stability (melting temperature) of Myo before and after labeling. Ellipticity at 222 nm was recorded every 1° C. from 25° C. to 90° C. […] Samples were measured in triplicates and the results were shown in average values.

C=C(CSCCOCCOC)C(=O)OC [Compound 17]
originally clicked T2 released in declick ([1]; 8 equivalents of ethanethiol (T1), MeOH-d4 / 50 mM pH 6.8 phosphate buffer 1:1): 70%

C=C(C[N+](CC)(CC)CC)C(=O)NC [Compound 8]
relative reactivity in thiol and amine addition reactions (in words) [2]: considerably slower than the corresponding acrylates; also recorded: less reactive than ester 1
modification sites / selectivity on βLGb (β-lactoglobulin B (βLGb)): only the free cysteine site was modified
time until βLGb fully labelled (β-lactoglobulin B (βLGb)): ≤ 40 min
number of modifications in βLGb (β-lactoglobulin B (βLGb)): one

C=C(C[n+]1ccc(N(C)C)cc1)C(=O)OC [Compound 5]
thiol-click reaction rate (in words) [2]: much slower; also recorded: faster than 4

C=C(C[n+]1ccccc1)C(=O)OC [Compound 4]
thiol-click reaction rate (in words) [2]: much slower
reactivity toward benzylamine (in words) ([3]; pH maintained, deuterated MeOH/buffer mixed media (FIG. 2C)): higher than 5

C=C(COC(C)=O)C(=O)NC [Compound 9]
relative reactivity in thiol and amine addition reactions (in words) [2]: considerably slower than the corresponding acrylates

C=C(COC(=O)Nc1ccc([N+](=O)[O-])cc1)C(=O)NC [Compound 10]
relative reactivity in thiol and amine addition reactions (in words) [2]: considerably slower than the corresponding acrylates

C=C(C[N+](CC)(CC)CC)C(=O)OC [Compound 1]
time for completion of reaction with the thiol ([2]; 1H NMR, 0.5 equivalent of thiol, 50 mM pH 7.4 phosphate buffer (FIG. 7)): 3 min
reversal of myoglobin modification by thiol (Myoglobin (Myo); 10 equivalents of thiol for 2 hours): reversed to unmodified myoglobin
modifications on myoglobin (Myoglobin (Myo); treated with 1, ESI-MS): Multiple modifications
time for completion of reaction with benzylamine ([3]; pH 7.4): ~50 min
modification sites / selectivity on βLGb (β-lactoglobulin B (βLGb)): non-selective; also recorded: modifications of other nucleophilic residues including lysine, tyrosine and threonine
time until βLGb fully labelled (β-lactoglobulin B (βLGb)): ≤ 5 min
number of modifications in βLGb (β-lactoglobulin B (βLGb)): one to four

C=C(CN(CC(=C)C(=O)OC)Cc1ccccc1)C(=O)OC [Compound 23]
benzylamine (29) released in declick ([1]; 2 equivalents of T2, MeOH-d4 / 50 mM pH 7.4 phosphate buffer 2:1): More than 80%
